How the values were obtained:
Experiment in all cases: TMT LC-MSMS of 11-labelled proteins
Type in all cases: cell-based
[1] = target: Stress-70 protein, mitochondrial (HSPA9) (Homo sapiens, UniProt P38646)
[2] = target: ATP synthase subunit alpha, mitochondrial (ATP5A1) (Homo sapiens, UniProt P25705)
[3] = target: T1, staphylococcal nuclease domain-containing protein 1 (SND1) (Homo sapiens, UniProt Q7KZF4)
T1 sequence (Q7KZF4 1-910): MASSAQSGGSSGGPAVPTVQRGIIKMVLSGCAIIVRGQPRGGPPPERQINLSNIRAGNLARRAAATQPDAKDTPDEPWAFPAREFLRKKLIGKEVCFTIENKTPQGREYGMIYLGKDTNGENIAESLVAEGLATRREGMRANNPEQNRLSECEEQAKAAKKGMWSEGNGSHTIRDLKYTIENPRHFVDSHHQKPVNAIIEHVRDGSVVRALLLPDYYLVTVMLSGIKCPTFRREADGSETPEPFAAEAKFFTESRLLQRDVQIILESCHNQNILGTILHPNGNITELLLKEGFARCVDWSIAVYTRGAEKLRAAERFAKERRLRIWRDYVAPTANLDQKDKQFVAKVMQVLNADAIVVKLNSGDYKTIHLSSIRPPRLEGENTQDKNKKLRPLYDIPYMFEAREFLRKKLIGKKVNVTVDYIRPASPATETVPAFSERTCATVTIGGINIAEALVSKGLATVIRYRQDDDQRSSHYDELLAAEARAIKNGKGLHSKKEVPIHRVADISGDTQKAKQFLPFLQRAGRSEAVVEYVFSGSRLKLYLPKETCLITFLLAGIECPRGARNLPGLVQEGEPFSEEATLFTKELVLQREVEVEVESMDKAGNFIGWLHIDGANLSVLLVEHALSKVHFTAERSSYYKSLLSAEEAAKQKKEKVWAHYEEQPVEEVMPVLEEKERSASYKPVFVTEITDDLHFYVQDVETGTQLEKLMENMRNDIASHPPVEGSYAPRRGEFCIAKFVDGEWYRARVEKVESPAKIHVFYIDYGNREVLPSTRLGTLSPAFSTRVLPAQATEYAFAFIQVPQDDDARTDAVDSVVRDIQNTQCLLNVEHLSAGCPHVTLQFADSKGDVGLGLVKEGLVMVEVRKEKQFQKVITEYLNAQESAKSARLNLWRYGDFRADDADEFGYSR

[4] = sheet Merged, SKBR3 cells, 11 0.5 µM 3 h vs DMSO
[5] = sheet Merged, SKBR3 cells, 11 0.5 µM 3 h vs with PU-H71 10 µM
[6] = sheet Exp1, SKBR3 cells, 11 0.5 µM 3 h vs DMSO
[7] = sheet Exp1, SKBR3 cells, 11 0.5 µM 3 h vs with PU-H71 10 µM

Sequence of Stress-70 protein, mitochondrial (HSPA9) (P38646 47-679): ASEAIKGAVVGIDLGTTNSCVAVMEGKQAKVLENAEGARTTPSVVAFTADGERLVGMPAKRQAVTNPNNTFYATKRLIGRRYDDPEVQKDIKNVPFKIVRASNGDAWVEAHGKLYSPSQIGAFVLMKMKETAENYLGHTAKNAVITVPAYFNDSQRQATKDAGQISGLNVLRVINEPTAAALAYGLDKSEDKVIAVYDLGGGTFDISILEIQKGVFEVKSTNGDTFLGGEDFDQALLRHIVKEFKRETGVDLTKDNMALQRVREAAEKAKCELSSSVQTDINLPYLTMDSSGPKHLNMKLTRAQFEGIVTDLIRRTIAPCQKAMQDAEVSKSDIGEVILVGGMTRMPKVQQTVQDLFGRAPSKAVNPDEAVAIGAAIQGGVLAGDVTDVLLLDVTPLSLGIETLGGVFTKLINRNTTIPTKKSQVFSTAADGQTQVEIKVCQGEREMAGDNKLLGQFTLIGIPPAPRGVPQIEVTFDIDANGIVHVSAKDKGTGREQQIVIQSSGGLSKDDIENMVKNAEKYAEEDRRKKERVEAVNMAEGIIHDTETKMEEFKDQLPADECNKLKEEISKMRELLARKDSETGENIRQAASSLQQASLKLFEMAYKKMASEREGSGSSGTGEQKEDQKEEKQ

`CC(=O)Oc1ccc2c(c1)Oc1cc(OC(C)=O)ccc1C21OC(=O)c2cc(C(=O)NCCOCCOCCNC(=O)CCCC(=O)N(CC#N)S(=O)(=O)c3ccc(C(=O)NCCCn4c(Sc5cc6c(cc5I)OCO6)nc5c(N)ncnc54)cc3)ccc21` [compound 11] was tested, and the “Abundance Ratio: (11) / (11 with PU-H71)” value ([1]; Exp3, HSPA9) was 0.949, the “Abundance Ratio: (11) / (DMSO)” value ([1]; Exp3, HSPA9) was 2.217 and the “Abundances (Grouped): 11” value ([1]; Exp3, HSPA9) was 31.7. For the same compound, the “Abundances (Grouped): 11 with PU-H71” value ([1]; Exp3, HSPA9, with PU-H71) was 33.4, the “Abundance Ratio: (11) / (DMSO)” value [1, 4] was 2.217 and the “Abundance Ratio: (11) / (11 with PU-H71)” value [1, 5] was 0.949. For the same compound, the “Abundance Ratio: (11) / (11 with PU-H71)” value ([2]; Exp3, ATP5A1) was 0.84, the “Abundance Ratio: (11) / (DMSO)” value ([2]; Exp3, ATP5A1) was 3.573 and the “Abundances (Grouped): 11” value ([2]; Exp3, ATP5A1) was 381.2. For the same compound, the “Abundances (Grouped): 11 with PU-H71” value ([2]; Exp3, ATP5A1) was 453.7, the “Abundance Ratio: (11) / (DMSO)” value [2, 6] was 3.323 and the “Abundance Ratio: (11) / (11 with PU-H71)” value [2, 7] was 0.923. For the same compound, the “Abundance Ratio: (11) / (11 with PU-H71)” value ([2]; sheet Exp2, ATP5A1) was 0.771, the “Abundance Ratio: (11) / (DMSO)” value ([2]; sheet Exp2, ATP5A1) was 3.865 and the “Abundances (Grouped): 11” value ([2]; sheet Exp2, ATP5A1) was 390.8. For the same compound, the “Abundances (Grouped): 11 with PU-H71” value ([2]; sheet Exp2, ATP5A1) was 506.9, the “Abundance Ratio: (11) / (DMSO)” value [2, 4] was 3.663 and the “Abundance Ratio: (11) / (11 with PU-H71)” value [2, 5] was 0.771. The “Abundance Ratio: (11) / (11 with PU-H71)” value ([3]; Exp3, SND1) was 0.662, the “Abundance Ratio: (11) / (DMSO)” value ([3]; Exp3, SND1) was 1.871 and the “Abundances (Grouped): 11” value ([3]; Exp3, SND1) was 30.5. For the same compound, the “Abundances (Grouped): 11 with PU-H71” value ([3]; Exp3, SND1, with PU-H71) was 46.1, the “Abundance Ratio: (11) / (DMSO)” value [3, 6] was 2.172 and the “Abundance Ratio: (11) / (11 with PU-H71)” value [3, 7] was 0.838. For the same compound, the “Abundance Ratio: (11) / (DMSO)” value [3, 4] was 2.016 and the “Abundance Ratio: (11) / (11 with PU-H71)” value [3, 5] was 0.745.

Source: publication PMC5951806, “Rapid labelling and covalent inhibition of intracellular native proteins using ligand-directed N-acyl-N-alkyl sulfonamide” (Nature Communications, 2018)
